Results on 20 molecules are retold here after PubChem BioAssay AID328 (DTP/NCI, 2004).

The subject of this test is BDF1 mice, P388 leukemia ip, median survival T/C. As to the kind of experiment: NCI In Vivo Anticancer Drug Screen. Data for tumor model P388 Leukemia (intraperitoneal) in B6D2F1 (BDF1) mice. The following applies: endpoint: median survival time, higher = longer survival. An outline of the steps:
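Read-out is survival of treated animals expressed relative to the vehicle group, as a T/C ratio.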

Where [1] appears, read: dose: 25.0 mg/kg/injection, schedule: Q04DX003 (ip), vehicle: saline.
Setting [2] is: dose: 50.0 mg/kg/injection, schedule: Q04DX003 (ip), vehicle: saline.
[3] abbreviates: dose: 12.5 mg/kg/injection, schedule: Q01DX009 (ip), vehicle: saline with Tween-80.
The mark [4] stands for this setting: dose: 12.5 mg/kg/injection, schedule: Q04DX003 (ip), vehicle: saline with Tween-80.
The mark [5] stands for this setting: dose: 25.0 mg/kg/injection, schedule: Q01DX009 (ip), vehicle: saline with Tween-80.
[6] abbreviates: dose: 25.0 mg/kg/injection, schedule: Q04DX003 (ip), vehicle: saline with Tween-80.
[7] abbreviates: dose: 50.0 mg/kg/injection, schedule: Q04DX003 (ip), vehicle: saline with Tween-80.
Setting [8] is: dose: 100.0 mg/kg/injection, schedule: Q04DX003 (ip), vehicle: saline with Tween-80.
The mark [9] stands for this setting: dose: 400.0 mg/kg/injection, schedule: Q04DX003 (ip), vehicle: saline with Tween-80.
Setting [10] is: dose: 6.25 mg/kg/injection, schedule: Q01DX009 (ip), vehicle: saline with Tween-80.
Where [11] appears, read: dose: 50.0 mg/kg/injection, schedule: Q01DX009 (ip), vehicle: saline with Tween-80.
Where [12] appears, read: dose: 200.0 mg/kg/injection, schedule: Q04DX003 (ip), vehicle: saline with Tween-80.
Setting [13] is: dose: 25.0 mg/kg/injection, schedule: Q04DX003 (ip), vehicle: Klucel (hydroxypropylcellulose) (HPC).
Setting [14] is: dose: 50.0 mg/kg/injection, schedule: Q04DX003 (ip), vehicle: Klucel (hydroxypropylcellulose) (HPC).
Setting [15] is: dose: 100.0 mg/kg/injection, schedule: Q04DX003 (ip), vehicle: Klucel (hydroxypropylcellulose) (HPC).
The mark [16] stands for this setting: dose: 200.0 mg/kg/injection, schedule: Q04DX003 (ip), vehicle: Klucel (hydroxypropylcellulose) (HPC).
The mark [17] stands for this setting: dose: 100.0 mg/kg/injection, schedule: Q01DX009 (ip), vehicle: saline with Tween-80.
The mark [18] stands for this setting: dose: 200.0 mg/kg/injection, schedule: Q01DX009 (ip), vehicle: saline with Tween-80.

Several values for one entry are separate records, joined by “and”; a condition that tells them apart may be missing. Equal entries are not always repeated. Toxic doses and inconclusive results are not listed.

Turning to `COc1cc2c(cc1OC)C(C)=NCC2`, the T/C reads like this: (dose: 3.0 mg/kg/injection, schedule: Q01DX001 (ip), vehicle: saline) 104 % of control; (dose: 6.0 mg/kg/injection, schedule: Q01DX001 (ip), vehicle: saline) 104 % of control; (dose: 12.0 mg/kg/injection, schedule: Q01DX001 (ip), vehicle: saline) 108 % of control; (dose: 12.0 mg/kg/injection, schedule: Q01DX009 (ip), vehicle: saline) 100 % of control; (dose: 12.0 mg/kg/injection, schedule: Q04DX003 (ip), vehicle: saline) 95 % of control; (dose: 25.0 mg/kg/injection, schedule: Q01DX001 (ip), vehicle: saline) 104 % of control. Further, the T/C is 100 % of control (dose: 25.0 mg/kg/injection, schedule: Q01DX009 (ip), vehicle: saline); 104 % of control under setting [1]; 108 % of control (dose: 50.0 mg/kg/injection, schedule: Q01DX001 (ip), vehicle: saline); 95 % of control (dose: 50.0 mg/kg/injection, schedule: Q01DX009 (ip), vehicle: saline); 100 % of control under setting [2].

`C=CCCN1CCCC1`: the T/C runs as follows: under setting [3], 88 % of control; under setting [4], 100 % of control; under setting [5], 100 % of control; under setting [6], 100 % of control; under setting [7], 95 % of control.

`[NH-]S(=O)(=O)O.[NH-]S(=O)(=O)O.[NH2-].[NH2-].[Pt+4]`: the T/C was 90 % of control (dose: 10.0 mg/kg/injection, schedule: Q01DX009 (ip), vehicle: saline with Tween-80); 100 % of control (dose: 10.0 mg/kg/injection, schedule: Q04DX003 (ip), vehicle: saline); 100 % of control (dose: 20.0 mg/kg/injection, schedule: Q01DX009 (ip), vehicle: saline with Tween-80); 100 % of control (dose: 20.0 mg/kg/injection, schedule: Q04DX003 (ip), vehicle: saline); 90 % of control (dose: 40.0 mg/kg/injection, schedule: Q01DX009 (ip), vehicle: saline with Tween-80); 108 % of control (dose: 40.0 mg/kg/injection, schedule: Q04DX003 (ip), vehicle: saline).

With `Nc1nc(C=O)c(-c2cccc3ccccc23)c(=O)[nH]1`, the T/C by setting is: under setting [8], 113 % of control; under setting [9], 150 % of control.

As to `O=C(CO)c1ccccc1`, the T/C was 93 % of control under setting [10], 95 % of control under setting [3], 93 % of control under setting [5] and 104 % of control under setting [11].

For the molecule `N=c1ccc2nc3ccc(N)cc3sc-2c1`, the T/C was 100 % of control under setting [1] and 109 % of control under setting [2].

For `C=CC(c1ccccc1)C(O)(Cc1ccccc1)Cc1ccccc1` (configuration not stated), the T/C is, setting by setting: (dose: 12.5 mg/kg/injection, schedule: Q01DX009 (ip), vehicle: DMSO) 116 % of control; (dose: 50.0 mg/kg/injection, schedule: Q01DX009 (ip), vehicle: DMSO) 100 % of control.

On to `Nc1nc(N)c2nc(SC34CC5CC(CC(C5)C3)C4)c(N)nc2n1`, for which the T/C was 97 % of control under setting [8], 88 % of control under setting [12] and 94 % of control under setting [9].

For `CCCCOc1ccc(C(=O)N/N=C(\C)[C@]2(O)Cc3c(O)c4c(c(O)c3[C@@H](OC3CC(N)C(O)C(C)O3)C2)C(=O)c2c(OC)cccc2C4=O)cc1` (some centres not stated), the T/C is, setting by setting: (dose: 1.0 mg/kg/injection, schedule: Q01DX009 (ip), vehicle: water) 173 % of control; (dose: 2.0 mg/kg/injection, schedule: Q01DX009 (ip), vehicle: water) 157 % of control and 173 % of control; (dose: 4.0 mg/kg/injection, schedule: Q01DX009 (ip), vehicle: water) 169 % of control.

For `Cn1c2nc3ccccc3c-2nc2ccccc21`, the T/C was 94 % of control (dose: 12.5 mg/kg/injection, schedule: Q04DX003 (ip), vehicle: Klucel (hydroxypropylcellulose) (HPC)); 98 % of control under setting [13]; 103 % of control under setting [14]; 101 % of control under setting [15]; 116 % of control under setting [16].

Turning to `COc1ccc(C[n+]2cc([O-])on2)cc1`, the T/C by setting is: under setting [6], 100 % of control; under setting [7], 100 % of control; under setting [8], 109 % of control and 113 % of control; under setting [12], 113 % of control.

For `O=C1NCCN1c1cccc([N+](=O)[O-])c1`, the T/C is 100 % of control under setting [13] and 100 % of control under setting [14].

On to `S=c1[nH]ncn1-c1ccccc1`, for which the T/C under setting [10] was 99 % of control, the T/C under setting [3] was 99 % of control, the T/C under setting [5] is 99 % of control and the T/C under setting [11] is 96 % of control.

Take `CCCCCCCCCCCCOc1ccc(C)cc1`: the T/C was 109 % of control under setting [8], 100 % of control under setting [12] and 100 % of control under setting [9].

On to `O=C1CN(Cc2ccccc2)CC(=O)N2Cc3ccccc3CN12`, for which the T/C runs as follows: (dose: 100.0 mg/kg/injection, schedule: Q01DX005 (ip), vehicle: saline with Tween-80) 101 % of control; (dose: 200.0 mg/kg/injection, schedule: Q01DX005 (ip), vehicle: saline with Tween-80) 92 % of control.

As to `c1coc(CNc2ncnc3nc[nH]c23)c1`, the T/C reads like this: under setting [17], 95 % of control; under setting [8], 91 % of control; under setting [18], 86 % of control; under setting [12], 95 % of control; (dose: 400.0 mg/kg/injection, schedule: Q01DX009 (ip), vehicle: saline with Tween-80) 100 % of control; under setting [9], 86 % of control.

As to `CC(C)OC(=S)SSC(=S)OC(C)C`, the T/C is 118 % of control (dose: 100.0 mg/kg/injection, schedule: Q01DX001 (ip), vehicle: Klucel (hydroxypropylcellulose) (HPC)); 104 % of control (dose: 100.0 mg/kg/injection, schedule: Q01DX009 (ip), vehicle: Klucel (hydroxypropylcellulose) (HPC)); 104 % of control under setting [15]; 109 % of control (dose: 200.0 mg/kg/injection, schedule: Q01DX001 (ip), vehicle: Klucel (hydroxypropylcellulose) (HPC)); 109 % of control (dose: 200.0 mg/kg/injection, schedule: Q01DX009 (ip), vehicle: Klucel (hydroxypropylcellulose) (HPC)); 118 % of control under setting [16]. The T/C reads like this: (dose: 400.0 mg/kg/injection, schedule: Q01DX001 (ip), vehicle: Klucel (hydroxypropylcellulose) (HPC)) 104 % of control; (dose: 400.0 mg/kg/injection, schedule: Q04DX003 (ip), vehicle: Klucel (hydroxypropylcellulose) (HPC)) 118 % of control.

For the molecule `COc1cc(C=NCCN=Cc2cc(OC)c(OC)c(OC)c2)cc(OC)c1OC`, the T/C was 111 % of control under setting [4], 107 % of control under setting [6], 92 % of control under setting [7] and 95 % of control under setting [12].

`Nc1ccc(C(=O)CC(C(=O)O)c2ccccc2)cc1` (configuration not stated): the T/C was 88 % of control (dose: 100.0 mg/kg/injection, schedule: Q04DX002 (ip), vehicle: saline with Tween-80); 90 % of control (dose: 200.0 mg/kg/injection, schedule: Q04DX002 (ip), vehicle: saline with Tween-80); 99 % of control (dose: 400.0 mg/kg/injection, schedule: Q04DX002 (ip), vehicle: saline with Tween-80).

Consider `CCC(C)C(=O)/C=C/c1ccccc1` (configuration not stated), for which the T/C is 96 % of control under setting [11], 107 % of control under setting [17] and 114 % of control under setting [18].
